Source: patent publication US8524274B2, “Liposomal composition comprising an active ingredient for relaxing smooth muscle, the production of this composition and the therapeutic use thereof” (Polymun Scientific Immunbiologische Forschung GmbH, priority 2004, dated 2013)
Where a name gives a salt, the structure may show the parent alone.

Key:
[1] = Solubility of the active ingredient in loading buffer systems and in water; assay type: physicochemical; settings: for solubility in citrate buffer: citric acid (intraliposomal) and citric acid/sodium carbonate pH 7.5-8.0 (extraliposomal)
Excerpt: NH3, which is present in a reversible equilibrium with ammonium sulphate in the intraliposomal aqueous medium, attempts to migrate out through the liposome membrane and to leave behind an H^+. Sildenafil migrates in the opposite direction into the liposome, takes up the hydrogen ion H^+, becomes more hydrophilic thereby and therefore remains in the […]. In this way, sildenafil can be efficiently loaded into liposomes. This applies in a similar manner also to the sildenafil alternatives tadalafil and vardenafil.

[2] = Active loading of DPPC/cholesterol liposomes via H+ gradient; active ingredient and lipid content by rp-HPLC; assay type: physicochemical; settings: two-stage variant; converted from the inclusion rate
Protocol: External loading of liposomes with sildenafil by means of H^+ gradient. The best inclusion rates were achieved under the following conditions. The lipids (molar DPPC:cholesterol ratio=55:45; in total 13 to 15 μmol per ml of aqueous phase) were dissolved in ethanol and this solution was injected into 125 mM ammonium sulphate solution. After spontaneous vesicle formation, the remaining, external ammonium sulphate solution was replaced by a 5% glucose solution and sildenafil citrate was added. In this way, an H^+ gradient formed between the inside and outside of the lipid vesicles. pH values below 2.5 are less suitable owing to resultant hydrolysis problems, and pH values greater than 5.5 are also not preferred, owing to the increasingly flat H^+ gradient. An aqueous 125 mM ammonium sulphate solution typically has a pH in the range of about 5-5.5. After removal of sildenafil which has not been included by means of gel filtration, both the active ingredient content and the lipid content were determined by means of rp-HPLC. Liposome size and distribution were determined by means of photon correlation spectroscopy (PCS). […]

Structure (SMILES)	solubility in citrate buffer [1]	solubility in water ([1]; water)	active ingredient per ml of liposomal suspension [2]
CCCc1nn(C)c2c(=O)[nH]c(-c3cc(S(=O)(=O)N4CCN(C)CC4)ccc3OCC)nc12 [sildenafil citrate]	insoluble or scarcely soluble	dissolves very readily	–
CCCc1nn(C)c2c(=O)[nH]c(-c3cc(S(=O)(=O)N4CCN(C)CC4)ccc3OCC)nc12 [sildenafil]	only poorly soluble or not soluble at all	–	1000-1500 μg of active ingredient per ml of liposomal suspension
